Values joined by “and” are separate entries in the source; they are usually repeats but may differ in a detail not shown here. Equal values may be shown once. ± gives the uncertainty stated by the source.
Assay: xn = mol fraction of the nth substance listed

CC(N)CN (configuration not stated) + O
viscosity [mPa·s], 101 kPa
Conditions | 298.15 K | 303.15 K | 308.15 K | 313.15 K | 318.15 K | 323.15 K
x1 = 0.0997 | 6.527 ± 0.086 | 5.479 ± 0.078 | 4.625 ± 0.067 | 3.878 ± 0.057 | 3.237 ± 0.051 | –
x1 = 0.0998 | – | 3.004 ± 0.019 | 2.529 ± 0.016 | 2.154 ± 0.014 | 1.855 ± 0.012 | 1.625 ± 0.01
x1 = 0.1997 | – | 6.596 ± 0.04 | 5.258 ± 0.034 | 4.287 ± 0.028 | 3.559 ± 0.023 | 2.977 ± 0.02
x1 = 0.2002 | 9.458 ± 0.12 | 7.901 ± 0.1 | 6.605 ± 0.091 | 5.522 ± 0.079 | 4.611 ± 0.07 | –
x1 = 0.2522 | – | 7.702 ± 0.048 | 6.095 ± 0.04 | 4.913 ± 0.033 | 4.041 ± 0.027 | 3.365 ± 0.023
x1 = 0.2992 | – | 8.043 ± 0.051 | 6.383 ± 0.043 | 5.139 ± 0.035 | 4.211 ± 0.029 | 3.495 ± 0.024
x1 = 0.2998 | 10.24 ± 0.13 | 8.542 ± 0.11 | 7.121 ± 0.098 | 5.956 ± 0.085 | 4.993 ± 0.076 | –
x1 = 0.3412 | – | 7.793 ± 0.052 | 6.196 ± 0.043 | 5.033 ± 0.035 | 4.11 ± 0.029 | 3.452 ± 0.025
x1 = 0.3995 | 9.546 ± 0.13 | 7.939 ± 0.11 | 6.633 ± 0.094 | 5.555 ± 0.082 | 4.676 ± 0.072 | –
x1 = 0.4012 | – | 7.095 ± 0.05 | 5.678 ± 0.041 | 4.69 ± 0.03 | 3.823 ± 0.028 | 3.204 ± 0.024
x1 = 0.4957 | 8.037 ± 0.11 | 6.649 ± 0.097 | 5.591 ± 0.084 | 4.69 ± 0.072 | 3.961 ± 0.062 | –
x1 = 0.5022 | – | 5.538 ± 0.043 | 4.504 ± 0.036 | 3.734 ± 0.03 | 3.14 ± 0.025 | 2.671 ± 0.021
x1 = 0.6011 | – | 3.921 ± 0.034 | 3.288 ± 0.028 | 2.792 ± 0.024 | 2.395 ± 0.021 | 2.08 ± 0.018
x1 = 0.6024 | 6.005 ± 0.091 | 4.915 ± 0.078 | 4.178 ± 0.066 | 3.516 ± 0.056 | 2.983 ± 0.048 | –
x1 = 0.6913 | – | 2.844 ± 0.026 | 2.443 ± 0.023 | 2.113 ± 0.02 | 1.85 ± 0.017 | 1.632 ± 0.015
x1 = 0.694 | 4.35 ± 0.071 | 3.566 ± 0.058 | 3.067 ± 0.05 | 2.603 ± 0.043 | 2.23 ± 0.037 | –
x1 = 0.7912 | – | 2.119 ± 0.021 | 1.854 ± 0.019 | 1.634 ± 0.017 | 1.45 ± 0.015 | 1.302 ± 0.013
x1 = 0.7949 | 2.882 ± 0.049 | 2.425 ± 0.041 | 2.098 ± 0.036 | 1.814 ± 0.031 | 1.585 ± 0.027 | –
x1 = 0.8901 | 1.975 ± 0.035 | 1.752 ± 0.031 | 1.508 ± 0.027 | 1.337 ± 0.024 | 1.199 ± 0.022 | –
x1 = 0.8998 | – | 1.689 ± 0.018 | 1.501 ± 0.017 | 1.312 ± 0.014 | 1.216 ± 0.013 | 1.101 ± 0.012

Cc1cccc(C)n1 + O
Conditions | viscosity
293.18 K, 101 kPa, x1 = 0.06338 | 2.838 ± 0.021 mPa·s
295.15 K, 101 kPa, x1 = 0.0183 | 1.357 ± 0.013 mPa·s
295.15 K, 101 kPa, x1 = 0.0403 | 1.932 ± 0.018 mPa·s
295.15 K, 101 kPa, x1 = 0.0675 | 2.915 ± 0.024 mPa·s
295.15 K, 101 kPa, x1 = 0.0833 | 3.276 ± 0.038 mPa·s
295.15 K, 101 kPa, x1 = 0.144 | 4.298 ± 0.038 mPa·s
295.15 K, 101 kPa, x1 = 0.282 | 5.153 ± 0.047 mPa·s
295.15 K, 101 kPa, x1 = 0.402 | 4.278 ± 0.051 mPa·s
295.15 K, 101 kPa, x1 = 0.602 | 2.687 ± 0.044 mPa·s
296.18 K, 101 kPa, x1 = 0.06338 | 2.578 ± 0.019 mPa·s
298.12 K, 101 kPa, x1 = 0.3006 | 4.353 ± 0.064 mPa·s
298.15 K, 101 kPa, x1 = 0.02034 | 1.346 ± 0.013 mPa·s
298.15 K, 101 kPa, x1 = 0.0297 | 1.553 ± 0.02 mPa·s
298.15 K, 101 kPa, x1 = 0.05039 | 2.066 ± 0.02 mPa·s
298.15 K, 101 kPa, x1 = 0.07682 | 2.713 ± 0.027 mPa·s
298.15 K, 101 kPa, x1 = 0.1166 | 3.638 ± 0.039 mPa·s
298.15 K, 101 kPa, x1 = 0.1208 | 3.916 ± 0.043 mPa·s
298.16 K, 101 kPa, x1 = 0.5008 | 2.844 ± 0.04 mPa·s
298.17 K, 101 kPa, x1 = 0.3981 | 3.708 ± 0.053 mPa·s
298.18 K, 101 kPa, x1 = 0.06338 | 2.428 ± 0.018 mPa·s
298.19 K, 101 kPa, x1 = 0.0602 | 2.361 ± 0.03 mPa·s
298.19 K, 101 kPa, x1 = 0.7887 | 1.038 ± 0.015 mPa·s
298.2 K, 101 kPa, x1 = 0.1001 | 3.14 ± 0.042 mPa·s
298.2 K, 101 kPa, x1 = 0.651 | 1.812 ± 0.026 mPa·s
298.21 K, 101 kPa, x1 = 0.0501 | 2.095 ± 0.027 mPa·s
298.23 K, 101 kPa, x1 = 0.2004 | 4.298 ± 0.063 mPa·s
299.18 K, 101 kPa, x1 = 0.06338 | 2.36 ± 0.017 mPa·s
300.12 K, 101.33 kPa, x1 = 0.0182 | 1.217 ± 0.01 mPa·s
300.18 K, 101 kPa, x1 = 0.06338 | 2.291 ± 0.017 mPa·s
301.18 K, 101 kPa, x1 = 0.06338 | 2.243 ± 0.017 mPa·s
302.02 K, 101 kPa, x1 = 0.0297 | 1.415 ± 0.016 mPa·s
302.18 K, 101 kPa, x1 = 0.06338 | 2.182 ± 0.016 mPa·s
303.02 K, 101 kPa, x1 = 0.2004 | 3.54 ± 0.059 mPa·s
303.05 K, 101 kPa, x1 = 0.0602 | 2.172 ± 0.027 mPa·s
303.08 K, 101 kPa, x1 = 0.1001 | 2.712 ± 0.038 mPa·s
303.12 K, 101.33 kPa, x1 = 0.0182 | 1.132 ± 0.009 mPa·s
303.17 K, 101 kPa, x1 = 0.0501 | 1.932 ± 0.023 mPa·s
303.17 K, 101 kPa, x1 = 0.3006 | 3.538 ± 0.057 mPa·s
303.18 K, 101 kPa, x1 = 0.06338 | 2.136 ± 0.016 mPa·s
303.19 K, 101 kPa, x1 = 0.3981 | 3.072 ± 0.043 mPa·s
303.19 K, 101 kPa, x1 = 0.5008 | 2.464 ± 0.034 mPa·s
303.23 K, 101 kPa, x1 = 0.7887 | 0.955 ± 0.014 mPa·s
303.26 K, 101 kPa, x1 = 0.651 | 1.593 ± 0.022 mPa·s
304.18 K, 101 kPa, x1 = 0.06338 | 2.093 ± 0.016 mPa·s
304.48 K, 101 kPa, x1 = 0.06338 | 2.084 ± 0.015 mPa·s
304.78 K, 101 kPa, x1 = 0.06338 | 2.076 ± 0.015 mPa·s
304.98 K, 101 kPa, x1 = 0.06338 | 2.071 ± 0.015 mPa·s
305.18 K, 101 kPa, x1 = 0.06338 | 2.066 ± 0.015 mPa·s
305.38 K, 101 kPa, x1 = 0.06338 | 2.063 ± 0.015 mPa·s
305.58 K, 101 kPa, x1 = 0.06338 | 2.064 ± 0.015 mPa·s
305.78 K, 101 kPa, x1 = 0.06338 | 2.065 ± 0.015 mPa·s
305.98 K, 101 kPa, x1 = 0.06338 | 2.065 ± 0.015 mPa·s
306.18 K, 101 kPa, x1 = 0.06338 | 2.058 ± 0.015 mPa·s
306.28 K, 101 kPa, x1 = 0.06338 | 2.074 ± 0.015 mPa·s
306.38 K, 101 kPa, x1 = 0.06338 | 2.083 ± 0.015 mPa·s
306.48 K, 101 kPa, x1 = 0.06338 | 2.088 ± 0.015 mPa·s
306.58 K, 101 kPa, x1 = 0.06338 | 2.101 ± 0.016 mPa·s
306.68 K, 101 kPa, x1 = 0.06338 | 2.124 ± 0.016 mPa·s
306.78 K, 101 kPa, x1 = 0.06338 | 2.141 ± 0.016 mPa·s
306.83 K, 101 kPa, x1 = 0.06338 | 2.151 ± 0.016 mPa·s
306.88 K, 101 kPa, x1 = 0.06338 | 2.183 ± 0.016 mPa·s
306.9 K, 101 kPa, x1 = 0.06338 | 2.198 ± 0.016 mPa·s
306.93 K, 101 kPa, x1 = 0.06338 | 2.22 ± 0.016 mPa·s
306.95 K, 101 kPa, x1 = 0.06338 | 2.242 ± 0.017 mPa·s
306.97 K, 101 kPa, x1 = 0.06338 | 2.27 ± 0.017 mPa·s
306.98 K, 101 kPa, x1 = 0.06338 | 2.291 ± 0.017 mPa·s
306.99 K, 101 kPa, x1 = 0.06338 | 2.316 ± 0.018 mPa·s
307 K, 101 kPa, x1 = 0.06338 | 2.344 ± 0.018 mPa·s and 2.36 ± 0.018 mPa·s
307.01 K, 101 kPa, x1 = 0.06338 | 2.384 ± 0.018 mPa·s and 2.396 ± 0.019 mPa·s and 2.405 ± 0.019 mPa·s
307.35 K, 101 kPa, x1 = 0.043 | 1.5 ± 0.02 mPa·s
307.35 K, 101 kPa, x1 = 0.0974 | 1.8 ± 0.03 mPa·s
307.65 K, 101 kPa, x1 = 0.0403 | 1.35 ± 0.02 mPa·s
307.65 K, 101 kPa, x1 = 0.105 | 1.95 ± 0.03 mPa·s
308.15 K, 101 kPa, x1 = 0.0349 | 1.2 ± 0.01 mPa·s
308.15 K, 101 kPa, x1 = 0.116 | 2.2 ± 0.03 mPa·s
308.18 K, 101 kPa, x1 = 0.5008 | 2.071 ± 0.029 mPa·s
308.21 K, 101 kPa, x1 = 0.3981 | 2.587 ± 0.036 mPa·s
308.23 K, 101 kPa, x1 = 0.7887 | 0.881 ± 0.013 mPa·s
308.26 K, 101 kPa, x1 = 0.651 | 1.413 ± 0.02 mPa·s
309.15 K, 101 kPa, x1 = 0.0288 | 1.1 ± 0.01 mPa·s
309.15 K, 101 kPa, x1 = 0.131 | 2.57 ± 0.03 mPa·s
311.15 K, 101 kPa, x1 = 0.0204 | 0.96 ± 0.01 mPa·s
311.15 K, 101 kPa, x1 = 0.155 | 2.47 ± 0.03 mPa·s
313.15 K, 101 kPa, x1 = 0.0185 | 0.88 ± 0.01 mPa·s
313.15 K, 101 kPa, x1 = 0.172 | 2.38 ± 0.03 mPa·s
313.25 K, 101 kPa, x1 = 0.5008 | 1.794 ± 0.024 mPa·s
313.31 K, 101 kPa, x1 = 0.3981 | 2.196 ± 0.03 mPa·s
313.32 K, 101 kPa, x1 = 0.651 | 1.262 ± 0.018 mPa·s
313.34 K, 101 kPa, x1 = 0.7887 | 0.815 ± 0.012 mPa·s
318.3 K, 101 kPa, x1 = 0.5008 | 1.571 ± 0.021 mPa·s
318.34 K, 101 kPa, x1 = 0.3981 | 1.902 ± 0.026 mPa·s
318.36 K, 101 kPa, x1 = 0.7887 | 0.758 ± 0.011 mPa·s
318.37 K, 101 kPa, x1 = 0.651 | 1.134 ± 0.016 mPa·s
319.15 K, 101 kPa, x1 = 0.017 | 0.73 ± 0.01 mPa·s
319.15 K, 101 kPa, x1 = 0.218 | 1.81 ± 0.02 mPa·s
323.15 K, 101 kPa, x1 = 0.013 | 0.63 ± 0.01 mPa·s
323.15 K, 101 kPa, x1 = 0.236 | 1.7 ± 0.02 mPa·s
